pIC50: −log10 of the molar value. Activity calls are given as the source filed them. No cut-off for these calls is given here.
Legend:
[1] = molecular target: Tumor necrosis factor (Homo sapiens) (UniProt P01375); assay: Inhibition of TNFalpha (unknown origin)-induced NF-kappaB activation in mouse NIH/3T3 cells assessed as inhibition of NF-kappaB binding to DNA at 20 uM after 6 hrs by luciferase reporter gene assay; type: cell-based; conditions: NIH3T3
NIH3T3 = assay: Cytotoxicity against mouse NIH/3T3 cells assessed as growth inhibition after 24 hrs by MTT assay; type: cell-based; conditions: for pIC50: Mus musculus, NIH3T3, 24 h, read-out: IC50
Mus musculus [2] = assay: Antiinflammatory activity in ICR mouse assessed as inhibition of lambda-carrageenan-induced paw edema at 15 to 30 mg/kg, ip administered 2 hrs prior to carrageenan challenge measured after 6 to 18 hrs; type: functional, organism-based
Mus musculus [3] = assay: Antiinflammatory activity in ICR mouse assessed as inhibition of lambda-carrageenan-induced paw edema at 10 mg/kg, ip administered 2 hrs prior to carrageenan challenge measured after 2 to 18 hrs; type: functional, organism-based; set-up: dose 10 mg/kg

Chain of Tumor necrosis factor (Homo sapiens) (P01375 whole entry): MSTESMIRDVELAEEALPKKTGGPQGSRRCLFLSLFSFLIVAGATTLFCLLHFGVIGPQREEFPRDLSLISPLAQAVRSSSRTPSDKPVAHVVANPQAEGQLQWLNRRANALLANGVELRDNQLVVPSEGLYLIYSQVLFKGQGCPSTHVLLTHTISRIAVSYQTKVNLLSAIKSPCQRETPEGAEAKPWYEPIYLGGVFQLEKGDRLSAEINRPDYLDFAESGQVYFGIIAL

SMILES | inhibition [1] | pIC50 (NIH3T3) | further results
COC(=O)[C@H]1C(c2ccc(Br)cc2)=NO[C@@H]1c1cc(OC)c(O)c2c1C[C@@H]1[C@@H]3C=C(OC)C(=O)C[C@]23CCN1C | Active | 4.25 | 
COC(=O)[C@@H]1C(c2cccc(Cl)c2)=NO[C@H]1c1cc(OC)c(O)c2c1C[C@@H]1[C@@H]3C=C(OC)C(=O)C[C@]23CCN1C | inactive | 4.11 | 
COC(=O)[C@@H]1C(c2ccc(Br)cc2)=NO[C@H]1c1cc(OC)c(O)c2c1C[C@@H]1[C@@H]3C=C(OC)C(=O)C[C@]23CCN1C | inactive | 4.27 | 
COC(=O)[C@@H]1C(c2ccc(Cl)cc2)=NO[C@H]1c1cc(OC)c(O)c2c1C[C@@H]1[C@@H]3C=C(OC)C(=O)C[C@]23CCN1C | inactive | 4.12 | 
COC(=O)[C@@H]1C(c2ccccc2)=NO[C@H]1c1cc(OC)c(O)c2c1C[C@@H]1[C@@H]3C=C(OC)C(=O)C[C@]23CCN1C | inactive | < 4.00 | 
CCCCCCOC(=O)/C=C/c1cc(OC)c(O)c2c1C[C@@H]1[C@@H]3C=C(OC)C(=O)C[C@]23CCN1C | Active | 4.41 | inhibition (Mus musculus [2]): Active
CCCCOC(=O)/C=C/c1cc(OC)c(O)c2c1C[C@@H]1[C@@H]3C=C(OC)C(=O)C[C@]23CCN1C | Active | 4.10 | 
CCCCC(CC)COC(=O)/C=C/c1cc(OC)c(O)c2c1C[C@@H]1[C@@H]3C=C(OC)C(=O)C[C@]23CCN1C (some centres undefined) |  | 5.32 | 
COC(=O)[C@H]1C(c2ccc(C)cc2)=NO[C@@H]1c1cc(OC)c(O)c2c1C[C@@H]1[C@@H]3C=C(OC)C(=O)C[C@]23CCN1C | Active | 4.09 | 
COC(=O)[C@H]1C(c2ccccc2)=NO[C@@H]1c1cc(OC)c(O)c2c1C[C@@H]1[C@@H]3C=C(OC)C(=O)C[C@]23CCN1C | Active | < 4.00 | 
COC(=O)[C@@H]1C(c2cccc(C)c2)=NO[C@H]1c1cc(OC)c(O)c2c1C[C@@H]1[C@@H]3C=C(OC)C(=O)C[C@]23CCN1C | Active | 4.11 | 
COC(=O)[C@H]1C(c2cccc(Cl)c2)=NO[C@@H]1c1cc(OC)c(O)c2c1C[C@@H]1[C@@H]3C=C(OC)C(=O)C[C@]23CCN1C | Active | 4.15 | 
COC1=C[C@H]2[C@H]3Cc4c(/C=C/C(=O)OC5CCCCC5)cc(OC)c(O)c4[C@@]2(CCN3C)CC1=O |  |  | IC50 (NIH3T3; nih3t3): ND(Insoluble)
COCCOC(=O)/C=C/c1cc(OC)c(O)c2c1C[C@@H]1[C@@H]3C=C(OC)C(=O)C[C@]23CCN1C |  | < 4.00 | 
COC1=C[C@@H]2[C@@H]3Cc4ccc(OC)c(O)c4[C@]2(CCN3C)CC1=O [SINOMENINE] | inactive | < 4.00 | 
COC(=O)[C@H]1C(c2ccc(OC)cc2)=NO[C@@H]1c1cc(OC)c(O)c2c1C[C@@H]1[C@@H]3C=C(OC)C(=O)C[C@]23CCN1C | Active | < 4.00 | 
CCOC(=O)/C=C/c1cc(OC)c(O)c2c1C[C@@H]1[C@@H]3C=C(OC)C(=O)C[C@]23CCN1C |  | < 4.00 | 
COC1=C[C@H]2[C@H]3Cc4c(/C=C/C(=O)OC(C)(C)C)cc(OC)c(O)c4[C@@]2(CCN3C)CC1=O |  | < 4.00 | 
COC(=O)[C@H]1C(c2cccc(C)c2)=NO[C@@H]1c1cc(OC)c(O)c2c1C[C@@H]1[C@@H]3C=C(OC)C(=O)C[C@]23CCN1C | Active | < 4.00 | 
COC(=O)/C(C)=C/c1cc(OC)c(O)c2c1C[C@@H]1[C@@H]3C=C(OC)C(=O)C[C@]23CCN1C |  | < 4.00 | 
COC(=O)[C@@H]1C(c2ccc(C)cc2)=NO[C@H]1c1cc(OC)c(O)c2c1C[C@@H]1[C@@H]3C=C(OC)C(=O)C[C@]23CCN1C | Active | 4.11 | 
COc1ccc2c(c1)c(CC(=O)O)c(C)n2C(=O)c1ccc(Cl)cc1 |  |  | inhibition (Mus musculus [3]): Active
COC(=O)[C@H]1C(c2ccc(Cl)cc2)=NO[C@@H]1c1cc(OC)c(O)c2c1C[C@@H]1[C@@H]3C=C(OC)C(=O)C[C@]23CCN1C | Active | 4.18 | 
COC(=O)[C@@H]1C(c2ccc(OC)cc2)=NO[C@H]1c1cc(OC)c(O)c2c1C[C@@H]1[C@@H]3C=C(OC)C(=O)C[C@]23CCN1C | inactive | 4.08 | 
COC1=C[C@H]2[C@H]3Cc4c(/C=C/C(=O)OCC(C)C)cc(OC)c(O)c4[C@@]2(CCN3C)CC1=O |  | < 4.00 | 
COC(=O)/C=C/c1cc(OC)c(O)c2c1C[C@@H]1[C@@H]3C=C(OC)C(=O)C[C@]23CCN1C |  | < 4.00 | 

Source: ChEMBL document CHEMBL2331461, “Microfluidics assisted synthesis and bioevaluation of sinomenine derivatives as antiinflammatory agents” (Eur J Med Chem, 2013)
